Data: ChEMBL document CHEMBL1201862, “PubChem BioAssay data set” (2004)
The source made the active and inactive calls.

Experiments:
HEK293 [1] = test: NOD1 signaling inhibitors, primary screen, cell-based, luminescence, uHTS (AID 1578); format: functional; conditions: Homo sapiens
HEK293 [2] = test: cells; format: functional, cell-based; conditions: Homo sapiens
HEK293 [3] = test: cells; format: functional, cell-based; conditions: Homo sapiens; remark: listed apart in the source
[4] = biological target: Nucleotide-binding oligomerization domain-containing protein 2 (Homo sapiens, UniProt Q9HC29); test: NOD2 signaling inhibitors, cell-based, luminescence, uHTS, HEK293 (AID 1566); format: functional
HEK293 [5] = test: NOD2 signaling inhibitors in MDP-stimulated cells, cell-based, uHTS, luminescence (AID 2001); format: functional; conditions: Homo sapiens
HEK293 [6] = test: cells; format: functional, cell-based; conditions: Homo sapiens; remark: listed apart in the source
Cytochrome P450 2C9 [7] = biological target: T1, Cytochrome P450 2C9 (Homo sapiens, UniProt P11712)
T1 sequence (P11712 whole entry): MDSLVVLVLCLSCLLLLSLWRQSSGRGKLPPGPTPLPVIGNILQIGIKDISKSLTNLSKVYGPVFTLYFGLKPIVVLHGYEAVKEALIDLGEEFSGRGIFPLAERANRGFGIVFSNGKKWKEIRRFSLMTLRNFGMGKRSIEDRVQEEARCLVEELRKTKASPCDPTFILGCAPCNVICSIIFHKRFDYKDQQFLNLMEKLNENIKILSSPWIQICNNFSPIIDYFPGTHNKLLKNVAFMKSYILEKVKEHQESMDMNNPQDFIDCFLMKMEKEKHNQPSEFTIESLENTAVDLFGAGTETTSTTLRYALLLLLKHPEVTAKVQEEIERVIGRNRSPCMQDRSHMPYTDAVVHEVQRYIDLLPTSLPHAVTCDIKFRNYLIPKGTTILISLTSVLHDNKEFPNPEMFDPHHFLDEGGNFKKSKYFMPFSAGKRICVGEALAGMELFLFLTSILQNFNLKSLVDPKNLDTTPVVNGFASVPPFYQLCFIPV

Cytochrome P450 3A4 [8] = biological target: T2, Cytochrome P450 3A4 (Homo sapiens, UniProt P08684);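 also: CYP3A4 tested as one member of a cytochrome P450 panel screen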
T2 sequence (P08684 whole entry): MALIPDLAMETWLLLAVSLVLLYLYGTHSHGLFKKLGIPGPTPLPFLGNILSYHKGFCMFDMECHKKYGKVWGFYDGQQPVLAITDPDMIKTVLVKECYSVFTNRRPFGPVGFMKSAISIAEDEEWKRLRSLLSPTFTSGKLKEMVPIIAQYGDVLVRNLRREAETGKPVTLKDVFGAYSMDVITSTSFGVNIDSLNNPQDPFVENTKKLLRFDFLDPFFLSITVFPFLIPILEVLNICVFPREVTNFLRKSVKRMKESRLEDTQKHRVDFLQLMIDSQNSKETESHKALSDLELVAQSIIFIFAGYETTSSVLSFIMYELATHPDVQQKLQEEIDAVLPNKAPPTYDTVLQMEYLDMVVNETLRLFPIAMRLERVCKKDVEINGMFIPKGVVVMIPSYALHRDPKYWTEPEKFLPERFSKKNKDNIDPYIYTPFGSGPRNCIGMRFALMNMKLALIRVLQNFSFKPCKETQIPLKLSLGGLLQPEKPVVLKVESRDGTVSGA

[9] = A Cell Based Secondary Assay To Explore Cytotoxicity of Compounds that Sensitize Mycobacterium Tuberculosis to Beta-Lactam Antibiotics.; format: functional
[10] = biological target: T3, Replicative DNA helicase DnaB (Mycobacterium tuberculosis, UniProt P9WMR3); test: DnaB intein splicing inhibitors, dose response, biochemical, cell-free fluorescence (AID 449749); format: functional
T3 sequence (P9WMR3 whole entry): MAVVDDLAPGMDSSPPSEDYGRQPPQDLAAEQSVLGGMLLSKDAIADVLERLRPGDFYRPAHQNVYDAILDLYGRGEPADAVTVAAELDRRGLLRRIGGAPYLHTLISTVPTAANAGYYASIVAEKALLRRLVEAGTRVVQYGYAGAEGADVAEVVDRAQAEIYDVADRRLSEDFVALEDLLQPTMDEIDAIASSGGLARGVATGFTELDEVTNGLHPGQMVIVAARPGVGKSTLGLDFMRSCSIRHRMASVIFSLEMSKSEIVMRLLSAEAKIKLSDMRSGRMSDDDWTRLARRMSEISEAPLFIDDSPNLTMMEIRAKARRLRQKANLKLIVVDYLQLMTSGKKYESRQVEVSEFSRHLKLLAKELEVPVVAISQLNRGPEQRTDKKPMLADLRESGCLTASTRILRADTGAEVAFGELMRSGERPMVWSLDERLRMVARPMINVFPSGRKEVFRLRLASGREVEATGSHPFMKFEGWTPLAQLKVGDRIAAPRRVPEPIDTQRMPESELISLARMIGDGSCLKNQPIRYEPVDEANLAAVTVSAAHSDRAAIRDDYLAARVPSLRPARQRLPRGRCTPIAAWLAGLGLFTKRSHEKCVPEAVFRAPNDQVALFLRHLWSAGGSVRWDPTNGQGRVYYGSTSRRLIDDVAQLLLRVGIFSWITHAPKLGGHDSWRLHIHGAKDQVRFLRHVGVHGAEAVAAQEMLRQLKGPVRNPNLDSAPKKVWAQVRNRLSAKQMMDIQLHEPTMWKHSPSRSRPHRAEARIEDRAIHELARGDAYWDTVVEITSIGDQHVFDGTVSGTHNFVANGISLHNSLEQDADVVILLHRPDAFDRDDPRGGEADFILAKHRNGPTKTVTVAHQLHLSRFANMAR

Protein RecA = biological target: T4, Protein RecA (Mycobacterium tuberculosis, UniProt P9WHJ3); test: Fluorescence Cell-Free Homogeneous Dose Retest to Identify Inhibitors of RecA-Intein Splicing Activity. [Related pubchem assays (depositor defined):AID2097, AID2223, AID489010, AID492950]; format: functional
T4 sequence (P9WHJ3 whole entry): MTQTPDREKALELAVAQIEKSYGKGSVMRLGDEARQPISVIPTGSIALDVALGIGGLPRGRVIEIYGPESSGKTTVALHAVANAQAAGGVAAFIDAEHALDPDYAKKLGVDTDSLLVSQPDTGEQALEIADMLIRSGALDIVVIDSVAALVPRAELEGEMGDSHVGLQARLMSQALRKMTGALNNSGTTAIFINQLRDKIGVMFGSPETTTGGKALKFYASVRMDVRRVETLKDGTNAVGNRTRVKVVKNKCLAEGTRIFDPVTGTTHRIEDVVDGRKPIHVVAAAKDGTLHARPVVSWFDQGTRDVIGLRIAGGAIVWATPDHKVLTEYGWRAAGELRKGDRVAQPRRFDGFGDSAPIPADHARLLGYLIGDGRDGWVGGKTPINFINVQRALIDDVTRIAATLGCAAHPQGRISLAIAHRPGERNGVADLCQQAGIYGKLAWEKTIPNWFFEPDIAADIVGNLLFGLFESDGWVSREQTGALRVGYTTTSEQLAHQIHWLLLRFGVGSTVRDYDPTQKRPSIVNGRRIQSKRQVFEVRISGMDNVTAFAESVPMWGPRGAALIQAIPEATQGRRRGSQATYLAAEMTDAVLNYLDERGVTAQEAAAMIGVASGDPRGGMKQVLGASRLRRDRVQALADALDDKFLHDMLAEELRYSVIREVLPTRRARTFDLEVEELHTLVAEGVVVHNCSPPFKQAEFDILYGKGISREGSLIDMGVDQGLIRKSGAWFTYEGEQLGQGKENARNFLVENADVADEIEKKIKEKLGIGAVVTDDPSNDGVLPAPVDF

[11] = biological target: T5, Calpain-2 catalytic subunit (Sus scrofa, UniProt P43367); test: pig calpain II inhibitor potency, dose response, biochemical, fluorogenic peptide substrate (AID 1420); format: functional
T5 sequence (P43367 whole entry): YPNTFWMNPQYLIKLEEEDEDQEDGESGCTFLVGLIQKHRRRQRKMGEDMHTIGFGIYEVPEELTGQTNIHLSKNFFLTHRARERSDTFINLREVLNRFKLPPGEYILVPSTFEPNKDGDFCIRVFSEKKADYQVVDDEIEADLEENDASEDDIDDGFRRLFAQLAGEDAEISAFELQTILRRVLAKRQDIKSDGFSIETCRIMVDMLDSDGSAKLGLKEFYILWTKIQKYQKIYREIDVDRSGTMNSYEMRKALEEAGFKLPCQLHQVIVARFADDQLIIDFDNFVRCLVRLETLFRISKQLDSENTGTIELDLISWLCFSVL

[12] = Luminescence Cell-Based Dose Retest to Confirm Inhibitors of Cancer Stem Cells. [Related pubchem assays (depositor defined):AID2717, AID2721]; format: functional; conditions: Homo sapiens
Coagulation factor XII = biological target: T6, Coagulation factor XII (Homo sapiens, UniProt P00748); format: functional;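 also: activated factor XIIa alpha cleaving a fluorogenic AMC peptide substrate; inhibitor potency from loss of enzyme activity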
T6 sequence (P00748 whole entry): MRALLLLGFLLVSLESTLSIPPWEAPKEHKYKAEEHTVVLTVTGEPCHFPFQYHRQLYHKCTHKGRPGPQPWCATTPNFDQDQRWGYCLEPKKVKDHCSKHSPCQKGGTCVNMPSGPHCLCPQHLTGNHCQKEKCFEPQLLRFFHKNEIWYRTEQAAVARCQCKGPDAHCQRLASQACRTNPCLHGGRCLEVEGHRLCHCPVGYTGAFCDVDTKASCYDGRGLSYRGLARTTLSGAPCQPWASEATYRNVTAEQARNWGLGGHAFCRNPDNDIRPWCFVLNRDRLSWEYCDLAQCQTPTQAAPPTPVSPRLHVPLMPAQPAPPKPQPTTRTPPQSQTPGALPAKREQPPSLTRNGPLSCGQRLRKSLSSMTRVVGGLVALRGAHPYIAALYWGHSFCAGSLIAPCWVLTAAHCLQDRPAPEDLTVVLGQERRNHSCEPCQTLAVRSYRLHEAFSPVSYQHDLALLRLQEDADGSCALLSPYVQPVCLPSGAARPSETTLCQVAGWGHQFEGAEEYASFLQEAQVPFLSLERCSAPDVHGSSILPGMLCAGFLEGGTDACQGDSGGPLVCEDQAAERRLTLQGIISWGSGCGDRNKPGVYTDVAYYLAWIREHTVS

[13] = biological target: Heat shock protein HSP 90-alpha (Homo sapiens, UniProt P07900); format: functional, organism-based
[14] = biological target: T7, Voltage-gated N-type calcium channel alpha-1B subunit/Amyloid beta A4 precursor protein-binding family A member 1 (Homo sapiens, UniProt Q00975+Q02410); format: protein assay
T7 sequence (Q00975 whole entry): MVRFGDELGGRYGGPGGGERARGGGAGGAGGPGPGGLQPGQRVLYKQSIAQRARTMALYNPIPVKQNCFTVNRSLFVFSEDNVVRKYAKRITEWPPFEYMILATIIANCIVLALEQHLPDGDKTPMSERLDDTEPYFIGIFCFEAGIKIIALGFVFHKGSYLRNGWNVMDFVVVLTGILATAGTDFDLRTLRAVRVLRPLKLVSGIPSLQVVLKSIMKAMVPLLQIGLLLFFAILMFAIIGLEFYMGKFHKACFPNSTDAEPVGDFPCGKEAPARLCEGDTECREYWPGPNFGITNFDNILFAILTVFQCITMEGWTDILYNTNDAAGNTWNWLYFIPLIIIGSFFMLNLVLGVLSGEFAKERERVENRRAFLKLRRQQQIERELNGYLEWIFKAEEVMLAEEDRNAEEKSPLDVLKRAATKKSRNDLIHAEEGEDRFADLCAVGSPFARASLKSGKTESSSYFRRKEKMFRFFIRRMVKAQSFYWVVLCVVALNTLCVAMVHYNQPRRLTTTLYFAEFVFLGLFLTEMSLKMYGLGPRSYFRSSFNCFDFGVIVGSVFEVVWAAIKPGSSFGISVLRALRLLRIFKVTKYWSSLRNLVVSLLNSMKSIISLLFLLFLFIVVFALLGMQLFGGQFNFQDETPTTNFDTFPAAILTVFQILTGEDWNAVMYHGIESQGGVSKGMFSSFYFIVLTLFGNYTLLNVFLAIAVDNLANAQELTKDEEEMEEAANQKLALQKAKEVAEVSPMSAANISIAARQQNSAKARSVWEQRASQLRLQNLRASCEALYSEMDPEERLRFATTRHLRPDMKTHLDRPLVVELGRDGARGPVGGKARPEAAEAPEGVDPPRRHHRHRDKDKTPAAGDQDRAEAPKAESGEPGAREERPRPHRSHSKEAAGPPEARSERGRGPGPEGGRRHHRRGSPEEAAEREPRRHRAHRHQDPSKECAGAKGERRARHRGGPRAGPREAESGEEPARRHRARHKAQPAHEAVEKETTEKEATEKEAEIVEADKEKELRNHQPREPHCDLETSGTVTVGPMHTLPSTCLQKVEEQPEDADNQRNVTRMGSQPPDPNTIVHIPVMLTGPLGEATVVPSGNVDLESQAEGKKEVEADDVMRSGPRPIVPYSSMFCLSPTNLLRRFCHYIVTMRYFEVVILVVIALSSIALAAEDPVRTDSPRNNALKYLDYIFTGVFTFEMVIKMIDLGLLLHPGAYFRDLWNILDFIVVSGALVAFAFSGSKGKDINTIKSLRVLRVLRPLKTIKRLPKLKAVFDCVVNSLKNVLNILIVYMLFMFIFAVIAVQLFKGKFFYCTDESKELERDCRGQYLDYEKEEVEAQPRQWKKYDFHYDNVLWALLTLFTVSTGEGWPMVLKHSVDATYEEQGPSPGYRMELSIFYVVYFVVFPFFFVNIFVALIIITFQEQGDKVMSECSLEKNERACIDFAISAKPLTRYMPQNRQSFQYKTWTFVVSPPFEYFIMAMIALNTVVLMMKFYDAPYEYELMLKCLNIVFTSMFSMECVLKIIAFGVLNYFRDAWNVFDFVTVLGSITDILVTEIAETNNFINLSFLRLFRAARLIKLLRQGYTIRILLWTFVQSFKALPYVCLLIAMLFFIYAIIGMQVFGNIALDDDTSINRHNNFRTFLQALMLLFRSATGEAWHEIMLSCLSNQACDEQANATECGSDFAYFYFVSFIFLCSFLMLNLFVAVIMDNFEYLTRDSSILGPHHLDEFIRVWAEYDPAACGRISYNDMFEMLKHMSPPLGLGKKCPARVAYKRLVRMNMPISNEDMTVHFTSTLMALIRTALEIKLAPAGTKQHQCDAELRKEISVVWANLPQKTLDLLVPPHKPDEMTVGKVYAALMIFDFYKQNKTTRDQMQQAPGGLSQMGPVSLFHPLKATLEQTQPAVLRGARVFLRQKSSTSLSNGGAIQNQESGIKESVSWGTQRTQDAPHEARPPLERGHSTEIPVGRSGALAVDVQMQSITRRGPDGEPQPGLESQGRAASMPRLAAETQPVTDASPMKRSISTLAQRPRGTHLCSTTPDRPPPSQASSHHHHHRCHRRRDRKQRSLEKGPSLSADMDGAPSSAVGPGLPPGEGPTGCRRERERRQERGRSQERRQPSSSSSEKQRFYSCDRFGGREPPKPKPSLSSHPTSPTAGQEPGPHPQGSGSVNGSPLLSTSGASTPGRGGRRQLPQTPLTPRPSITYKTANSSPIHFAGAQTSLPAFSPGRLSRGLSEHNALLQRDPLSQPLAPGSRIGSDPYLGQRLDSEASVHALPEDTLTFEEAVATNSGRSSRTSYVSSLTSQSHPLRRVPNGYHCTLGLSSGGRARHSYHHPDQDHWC
T7 sequence (Q02410 whole entry): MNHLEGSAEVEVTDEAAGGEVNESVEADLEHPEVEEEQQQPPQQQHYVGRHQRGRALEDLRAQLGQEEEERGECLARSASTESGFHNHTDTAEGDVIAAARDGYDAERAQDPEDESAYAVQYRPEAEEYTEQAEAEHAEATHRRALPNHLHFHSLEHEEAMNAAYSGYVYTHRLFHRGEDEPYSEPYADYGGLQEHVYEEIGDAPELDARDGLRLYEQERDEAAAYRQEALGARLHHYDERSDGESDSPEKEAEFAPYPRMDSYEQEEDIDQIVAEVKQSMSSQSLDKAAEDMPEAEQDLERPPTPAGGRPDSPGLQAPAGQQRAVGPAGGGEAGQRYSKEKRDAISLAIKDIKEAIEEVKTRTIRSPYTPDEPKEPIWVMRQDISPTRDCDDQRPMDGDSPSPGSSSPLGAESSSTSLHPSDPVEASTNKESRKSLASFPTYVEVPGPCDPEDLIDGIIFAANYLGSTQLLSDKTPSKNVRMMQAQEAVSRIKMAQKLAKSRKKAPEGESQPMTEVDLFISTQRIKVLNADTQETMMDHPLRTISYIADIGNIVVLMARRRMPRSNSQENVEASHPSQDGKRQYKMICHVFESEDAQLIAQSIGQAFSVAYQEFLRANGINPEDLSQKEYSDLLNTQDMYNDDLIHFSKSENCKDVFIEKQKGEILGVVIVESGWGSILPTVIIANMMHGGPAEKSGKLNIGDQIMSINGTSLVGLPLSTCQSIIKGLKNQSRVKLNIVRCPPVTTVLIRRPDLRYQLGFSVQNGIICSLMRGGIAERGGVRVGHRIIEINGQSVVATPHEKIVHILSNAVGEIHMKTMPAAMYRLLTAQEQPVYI

[15] = biological target: T7, Voltage-gated N-type calcium channel alpha-1B subunit/Amyloid beta A4 precursor protein-binding family A member 1; format: protein assay; remark: listed apart in the source
[16] = biological target: T7, Voltage-gated N-type calcium channel alpha-1B subunit/Amyloid beta A4 precursor protein-binding family A member 1; test: disruptors of Mint-PDZ/N-type channel peptide interaction – biochemical, HTRF, SAR follow-up (AID 2489); format: functional
[17] = HEp-2 cell cytotoxicity, dose response, cytotoxicity control for RSV inhibitor project, HTS (AID 2410); format: functional; conditions: human respiratory syncytial virus
Cytochrome P450 1A2 = biological target: T8, Cytochrome P450 1A2 (Homo sapiens, UniProt P05177);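 also: PubChem cytochrome P450 panel assay, CYP1A2 panel member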
T8 sequence (P05177 whole entry): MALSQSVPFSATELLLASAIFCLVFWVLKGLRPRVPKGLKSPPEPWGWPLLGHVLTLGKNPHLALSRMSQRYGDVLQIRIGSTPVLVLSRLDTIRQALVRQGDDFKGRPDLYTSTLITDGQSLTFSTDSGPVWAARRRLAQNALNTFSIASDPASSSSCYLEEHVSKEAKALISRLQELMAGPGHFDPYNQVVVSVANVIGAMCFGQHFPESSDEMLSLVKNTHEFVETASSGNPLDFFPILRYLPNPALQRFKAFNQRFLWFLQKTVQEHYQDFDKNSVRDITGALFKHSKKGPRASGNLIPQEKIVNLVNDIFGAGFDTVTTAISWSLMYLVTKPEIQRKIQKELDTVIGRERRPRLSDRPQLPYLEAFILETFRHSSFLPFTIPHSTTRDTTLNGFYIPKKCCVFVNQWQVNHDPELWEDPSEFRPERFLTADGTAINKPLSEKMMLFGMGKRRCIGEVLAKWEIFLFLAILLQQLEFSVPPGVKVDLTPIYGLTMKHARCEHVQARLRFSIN

[18] = NIH-3T3 fibroblast cytotoxicity, dose response, cytotoxicity control, cell-based, fluorescence, Alamar Blue, secondary assay (AID 2327); format: functional;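 also: NIH-3T3 mouse fibroblasts cultured with fluconazole at 8 µg/mL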
[19] = C. albicans growth with fluconazole, confirmation, fluorescence, retest (AID 2467); format: functional, cell-based
Cytochrome P450 3A4 [20] = biological target: T2, Cytochrome P450 3A4; remark: listed apart in the source
Cytochrome P450 2C9 [21] = biological target: T1, Cytochrome P450 2C9; remark: listed apart in the source
[22] = biological target: Dual specificity tyrosine-phosphorylation-regulated kinase 1A (Rattus norvegicus, UniProt Q63470); format: biochemical, Homo sapiens
Tumor necrosis factor = Tumor necrosis factor (Homo sapiens, UniProt P01375); test: TNFa-triggered NF-kB activation inhibitors, SAR follow-up, cell-based, revised (AID 2337); format: functional
Sequence of Tumor necrosis factor (P01375 whole entry): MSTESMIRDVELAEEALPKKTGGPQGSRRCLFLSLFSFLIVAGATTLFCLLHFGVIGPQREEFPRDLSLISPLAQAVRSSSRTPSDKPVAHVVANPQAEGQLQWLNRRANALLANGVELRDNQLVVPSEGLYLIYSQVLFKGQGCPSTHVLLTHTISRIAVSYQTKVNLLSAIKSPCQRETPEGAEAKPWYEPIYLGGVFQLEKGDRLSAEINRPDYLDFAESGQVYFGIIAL

HEK293 [23] = test: cells; conditions: Homo sapiens

Cc1nc(N2CCC(C)CC2)c2c(C)c(C(=O)Nc3cc(F)ccc3C)sc2n1
EC50 (HEK293 [1]): > 20 µM (inactive)
IC50 (HEK293 [2]): > 20 µM (inactive)
IC50 (HEK293 [3]): > 20 µM (inactive)
EC50 [4]: > 20 µM (inactive)
IC50 (HEK293 [5]): > 20 µM (inactive)
IC50 (HEK293 [6]): > 20 µM (inactive)

COc1ccc2c(c1)CN([C@H](C)[C@@H]1CC[C@@H]3[C@H]4CC[C@H]5C[C@@H](O)CC[C@@]5(C)[C@H]4CC[C@]31C)CO2
AC50 (Cytochrome P450 2C9 [7]): 7.94 µM (inconclusive)
AC50 (Cytochrome P450 3A4 [8]): inconclusive

Cc1cc(Cl)ccc1OC(C)C(=O)NCCCCc1ccccc1 (centres undefined)
CC50 [9]: > 40 µM (active)

O=C1COc2ccc(C(=O)CCl)cc2N1
CC50 [9]: 31.8 µM (active)
AC50 [10]: 40.4 µM (active)
EC50 (Protein RecA): 26.3 µM (active)

NC(=O)[C@@H]1CC2(CC(c3cccc(NC(=O)COc4ccc(Cl)cc4)c3)=NO2)CN1C(=O)COc1ccc(Cl)cc1 (some centres undefined)
CC50 [9]: > 40 µM (active)

Cc1c(C(=O)N(Cc2ccccc2)Cc2cccs2)cnn1-c1ccc(Cl)cc1
IC50 [11]: 4.66 µM (not active)
AC50 [12]: 1.77 µM (active)
IC50 (Coagulation factor XII): > 50 µM (inactive)
AC50 [13]: 3.44 µM (active)

Cc1cccc(NC(=O)C2(c3ccccc3)CC2(Cl)Cl)c1 (centres undefined)
AC50 (Cytochrome P450 3A4 [8]): inconclusive

O=C(CSc1ccc(Cl)cc1)Nc1cccc(-c2nc3ccccc3[nH]2)c1
IC50 [14]: 2.75 µM (active)
IC50 [15]: 36.7 µM (active)
IC50 [16]: 26.9 µM (active)

CC(CCc1ccc(O)cc1)NC(c1ccccc1)c1ccc(Cl)cc1 (centres undefined)
CC50 [17]: 10.3 µM (active)
IC50 (cells): 11.8 µM (active)

Oc1nc(COc2ccc(Br)cc2Cl)nc2ccccc12
CC50 [17]: 23.6 µM (active)
IC50 (cells): 30.7 µM (active)

COc1cccc(NC(=O)c2cc(-c3cccnc3)nc3c(Cl)cccc23)c1
CC50 [9]: 33.5 µM (active)

COc1ccc(-c2nc3cnc(N4CCN(C)CC4)nc3n(Cc3ccc(F)cc3)c2=O)cc1
AC50 (Cytochrome P450 1A2): 10 µM (inconclusive)
AC50 (Cytochrome P450 3A4 [8]): inconclusive

Cc1cc(C(C#N)c2cccc(Cl)c2)n2ncnc2n1 (centres undefined)
EC50 [18]: > 160 µM (inactive)
EC50 [19]: 0.598 µM (active)
IC50 (Coagulation factor XII): > 50 µM (inactive)
AC50 (Cytochrome P450 3A4 [20]): 14.1 µM (inconclusive)
AC50 (Cytochrome P450 2C9 [21]): inconclusive

CCc1c(C)nc(N)nc1N1N=C1SCC#N
IC50 (Coagulation factor XII): > 50 µM (inactive)

COc1ccc(/C=C/C(=O)Nc2cccc(C(C)=O)c2)cc1
AC50 [22]: 3.68 µM (active)

CN(C)c1ccc(NC(=O)c2ccc(CN3CCc4ccccc43)cc2)cc1
IC50 (Tumor necrosis factor): 5.37 µM (active)
IC50 (HEK293 [23]): > 20 µM (inactive)

C/C(=N\NC(=O)c1ccc(NS(=O)(=O)c2cccs2)cc1)c1ccc(C(C)(C)C)cc1
CC50 [17]: 20.6 µM (active)
IC50 (cells): 8.48 µM (active)
